Measurements: patent US7985417B2, “Method of lipid structure preparation” (Yissum Research Development Company of the Hebrew …, priority 2004, dated 2011)

Columns and labels:
[1] = Apparent pKa of C17HC in EPC liposomes before and after insertion of PEG-DSPE; assay type: physicochemical
Experimental: (§1) More generally, and as noted above, the method of microwave irradiation can also be used to insert a lipid-polymer (“lipopolymer”), that is a lipopolymer lacking any ligand, into a pre-formed lipid structure, such as liposomes. This general concept was illustrated in another study, described in Example 4, where liposomes having a lipid bilayer of egg phosphatidylcholine and including a fluorescent label were incubated with a micellar suspension of the lipopolymer DSPE-PEG. Two studies were done, using two different fluorescent labels, shown in FIGS. 4A-4B, incorporated into the liposome lipid bilayers. […] A small amount of one of the fluorescent lipidic labels was included in the lipids during formation of the liposomes.
(§2) Liposomes comprised of egg phosphatidylcholine (EPC) and labeled with a pH-sensitive probe, 7-heptadecyl-4-hydroxycoumarin (C17HC) (FIG. 4A) or 1,2-dioleoyl-sn-glycero-3-phosphoethanolamine (DOPE-HC) (FIG. 4B), were prepared by thin film hydration followed by down sizing using extrusion. Briefly, EPC and one of the pH-sensitive probes were dissolved in an organic solvent in a round-bottomed flask. The solvent was removed by rotary evaporation to form a thin lipid film that was hydrated with an aqueous buffer to form multilamellar liposomes. The liposome suspension was sized by extrusion through polycarbonate membranes to an average diameter of 100 nm.
(§3) A conjugate of DSPE-PEG (PEG MW 2000 Daltons) was obtained commercially. A micellar suspension of the DSPE-PEG conjugate was mixed with a suspension of the labeled-EPC liposomes were incubated for 90 seconds in the presence of microwave irradiation in a conventional microwave oven operated at 60% power (Spectra, 850 W capacity). The extent of conjugate insertion was determined by the shift in the apparent pKa of HC moiety.
With respect to the liposomes labeled with C17HC, the apparent pKa of C17HC was calculated from the change of the ratio of excitation wavelengths 380/330 (emission wavelength 450 nm) as a function of bulk pH (Zuidam and Barenholz, Biochim Biophys Acta, 1329(2):211-22 (1997)). Fluorescence was measured using an LS-50B luminescence spectrometer (Perkin Elmer, Norwalk, Conn.). As a comparative reference, the insertion of DSPE-PEG into the same liposomes at room temperature was also measured.

[2] = Apparent pKa of DOPE-HC in EPC liposomes before and after insertion of PEG-DSPE; assay type: physicochemical
Experimental: as §1
The DOPE-HC-labeled egg PC liposomes were incubated with DSPE-PEG (MW 2000 Daltons) conjugates in the presence of microwave irradiation for 90 seconds. The extent of lipopolymer insertion was calculated from the apparent pKa, as described in Example 4.
Also in this study, a sample of the EPC liposomes was combined with free polyethylene glycol (PEG, MW 2000 Daltons) and exposed for 90 seconds to microwave irradiation in the microwave oven at 60% capacity (850 W total capacity). No insertion of free PEG (i.e., PEG lacking a lipidic or hydrophobic portion) into liposomes was observed.
as §2, §3
With respect to the liposomes labeled with DOPE-HC, the apparent pKa of DOPE-HC was calculated from the change of the ratio of excitation wavelengths 370/408 (emission wavelength 480 nm) as a function of bulk pH. Fluorescence was measured using an LS-50B luminescence spectrometer (Perkin Elmer, Norwalk, Conn.) immediately after exposure of microwave irradiation and 48 hours after exposure.

[3] = EPC with PEG-DSPE (90 sec in MW) after 48 hours
[4] = EPC with PEG-DSPE (90 sec in MW) immediately

| Compound | apparent pKa [1, 3] | apparent pKa [1, 4] | apparent pKa ([1]; EPC with PEG-DSPE (5 hours at RT)) | apparent pKa ([1]; EPC with PEG-DSPE (5 hours at RT) after 48 hours) | apparent pKa ([1]; EPC without PEG-DSPE) | apparent pKa ([2]; EPC with PEG (90 sec in MW) after 48 hours) | apparent pKa ([2]; EPC with PEG (90 sec in MW) immediately) | apparent pKa [2, 3] | apparent pKa [2, 4] | apparent pKa ([2]; EPC without PEG-DSPE or 2000PEG, after 48 hours) | apparent pKa ([2]; EPC without PEG-DSPE or PEG) |
| --- | --- | --- | --- | --- | --- | --- | --- | --- | --- | --- | --- |
| CCCCCCCCCCCCCCCCCc1ccc2c(O)cc(=O)oc2c1 [C17HC, 7-heptadecyl-4-hydroxycoumarin] | 10.28 | 9.98 | 10.13 | 10.14 | 9.41 |  |  |  |  |  |  |
| CCCCCCCC/C=C\CCCCCCCC(=O)OC[C@H](COP(=O)(O)OCCN)OC(=O)CCCCCCC/C=C\CCCCCCCC [DOPE-HC, 1,2-dioleoyl-sn-glycero-3-phosphoethanolamine] |  |  |  |  |  | 9.08 | 9.09 | 9.38 | 9.26 | 9.28 | 9.12 |
